These results are taken from US20090036450A1, “PYRAZOLE COMPOUNDS AND USE THEREOF” (JAPAN TOBACCO, INC., priority 2006, published 2009).

This assay concerns the target T1, human liver glycogen phosphorylase (Homo sapiens, UniProt P06737).
T1 construct: made in house; host or cells: Sf9 insect cells (suspension of disrupted cells, diluted in BES buffer, not purified)
T1 sequence (P06737 1-847): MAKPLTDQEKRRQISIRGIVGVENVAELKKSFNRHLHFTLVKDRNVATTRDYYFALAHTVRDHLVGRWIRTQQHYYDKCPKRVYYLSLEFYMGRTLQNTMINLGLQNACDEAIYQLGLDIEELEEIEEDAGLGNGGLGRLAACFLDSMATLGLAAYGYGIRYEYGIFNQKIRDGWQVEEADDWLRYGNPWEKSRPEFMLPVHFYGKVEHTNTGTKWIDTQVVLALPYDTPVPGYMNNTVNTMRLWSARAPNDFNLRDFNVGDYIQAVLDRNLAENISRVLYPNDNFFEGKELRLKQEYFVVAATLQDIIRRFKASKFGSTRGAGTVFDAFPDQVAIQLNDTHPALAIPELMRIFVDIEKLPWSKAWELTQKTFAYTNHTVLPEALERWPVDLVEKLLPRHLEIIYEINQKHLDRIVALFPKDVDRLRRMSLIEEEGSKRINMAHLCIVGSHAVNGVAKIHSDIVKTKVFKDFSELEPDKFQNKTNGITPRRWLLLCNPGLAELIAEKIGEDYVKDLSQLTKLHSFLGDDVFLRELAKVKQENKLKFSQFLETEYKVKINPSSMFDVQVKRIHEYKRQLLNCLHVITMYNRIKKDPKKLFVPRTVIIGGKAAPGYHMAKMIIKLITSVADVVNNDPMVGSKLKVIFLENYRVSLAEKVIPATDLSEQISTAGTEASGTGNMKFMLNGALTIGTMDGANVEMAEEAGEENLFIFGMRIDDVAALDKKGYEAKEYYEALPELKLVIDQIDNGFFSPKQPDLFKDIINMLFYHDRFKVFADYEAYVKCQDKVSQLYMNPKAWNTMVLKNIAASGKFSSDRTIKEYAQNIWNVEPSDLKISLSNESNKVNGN
In words: Liver glycogen phosphorylase activity, forward reaction system (NADPH detection at 340 nm). Type of assay: biochemical. The settings on record: enzyme inhibitory activity against recombinant human liver glycogen phosphorylase (Sf9 cell lysate), room temperature, 75 minutes. The protocol: The glycogen phosphorylase activity was determined by a method using a forward reaction system.
The following method was used to determine the glycogen phosphorylase activity using a forward reaction system. Glucose-1-phosphate generated from glycogen by glycogen phosphorylase was converted to glucono-δ-lactone-6-phosphate by transphosphorylation and dehydrogenation reactions using phosphoglucomutase and glucose-6-phosphate dehydrogenase (G6PDH). At this time, NADPH generated from NADP in the dehydrogenation reaction by G6PDH was detected.
An enzyme solution of human liver glycogen phosphorylase was obtained by diluting with 100 mmol/L BES buffer (pH 6.8, containing 2 mmol/L EDTA) a suspension disrupted Sf9 cells in which a recombinant human liver glycogen phosphorylase was forcibly expressed. Phosphate buffer (16 mmol/L KH2PO4, containing 24 mmol/L Na2HPO4) was used as a substrate solution. A mixture of 8 U/mL phosphoglucomutase and 60 U/mL G6PDH was prepared with BES buffer. A reaction buffer (1.4 mmol/L NADP, 30 mmol/L MgCl2, 8 μmol/L glucose-1,6-diphosphate, 8 mg/mL glycogen, 40 mmol/L BES, containing 0.8 mmol/L EDTA) and a glucose solution (75 mmol/L glucose and 100 mmol/L BES, containing 2 mmol/L EDTA) were prepared. A test substance was dissolved in 1% DMSO aqueous solution.
To a mixture of the glucose solution (20 μL), the substrate solution (20 μL), the reaction buffer (100 μL), and the test substance (20 μL), the recombinant human liver glycogen phosphorylase solution (20 μL), and a mixture (20 μL) of phosphoglucomutase and G6PDH were added to initiate an enzymatic reaction. To a control, 1% DMSO aqueous solution was added instead of the test substance. A solution to which the substrate was not added was used as a blank. After initiation of the reaction, absorbance at 340 nm was measured immediately. The reaction was performed at room temperature for 75 minutes, and then absorbance at 340 nm was measured again. The enzyme activity was obtained by deducting the change in absorbance of the blank for 75 minutes from the change in absorbance over 75 minutes. The inhibition rate (%) of the test substance was calculated by “(1−(enzyme activity of test substance)/(enzyme activity of control))×100”.
“IC50” represents an enzyme inhibitory activity against human liver glycogen phosphorylase.

Structures are written as SMILES.

Consider `CCOC(=O)c1ccc(CNC(=O)c2cc(NC(=O)c3cc(F)c(F)cc3Cl)[nH]n2)o1` [Example 1-1, 5-(2-chloro-4,5-difluoro-benzoylamino)-1H-pyrazole-3-carboxylic acid (5-ethoxycarbonyl-furan-2-ylmethyl)-amide], for which the 50% inhibitory concentration (IC50) (commonly the concentration at which inhibition is half-maximal) was less than 100 nM.
The result for `CCN(CC)S(=O)(=O)c1ccsc1CNC(=O)c1cc(NC(=O)c2cc(F)c(F)cc2Cl)[nH]n1` [Example 1-2, 5-(2-chloro-4,5-difluoro-benzoylamino)-1H-pyrazole-3-carboxylic acid (3-diethylsulfamoyl-thiophen-2-ylmethyl)-amide] reads 100 to 300 nM; that for `O=C(NCc1sccc1OCc1ccccc1)c1cc(NC(=O)c2cc(F)c(F)cc2Cl)[nH]n1` [Example 1-3, 5-(2-chloro-4,5-difluoro-benzoylamino)-1H-pyrazole-3-carboxylic acid (3-benzyloxy-thiophen-2-ylmethyl)-amide], 100 to 300 nM; that for `Cc1nc(-c2ccc(CNC(=O)c3cc(NC(=O)c4cc(F)c(F)cc4Cl)[nH]n3)s2)cs1` [Example 1-4, 5-(2-chloro-4,5-difluoro-benzoylamino)-1H-pyrazole-3-carboxylic acid [5-(2-methyl-thiazol-4-yl)-thiophen-2-ylmethyl]-amide], less than 100 nM.
Take `O=C(NCc1csc(-c2ccc(Cl)cc2)n1)c1cc(NC(=O)c2cc(F)c(F)cc2Cl)[nH]n1` [Example 1-5, 5-(2-chloro-4,5-difluoro-benzoylamino)-1H-pyrazole-3-carboxylic acid [2-(4-chloro-phenyl)-thiazol-4-ylmethyl]-amide]: the IC50 is less than 100 nM.
The result for `Cc1nc(-c2ccc(C(F)(F)F)cc2)sc1CNC(=O)c1cc(NC(=O)c2cc(F)c(F)cc2Cl)[nH]n1` [Example 1-6, 5-(2-chloro-4,5-difluoro-benzoylamino)-1H-pyrazole-3-carboxylic acid [4-methyl-2-(4-trifluoromethyl-phenyl)-thiazol-5-ylmethyl]-amide] reads 100 to 300 nM; that for `Cc1ccc(-c2nc(C)c(CNC(=O)c3cc(NC(=O)c4cc(F)c(F)cc4Cl)[nH]n3)s2)s1` [Example 1-7, 5-(2-chloro-4,5-difluoro-benzoylamino)-1H-pyrazole-3-carboxylic acid [4-methyl-2-(5-methyl-thiophen-2-yl)-thiazol-5-ylmethyl]-amide], less than 100 nM; that for `Cc1nc(-c2ccc(Cl)s2)sc1CNC(=O)c1cc(NC(=O)c2cc(F)c(F)cc2Cl)[nH]n1` [Example 1-8, 5-(2-chloro-4,5-difluoro-benzoylamino)-1H-pyrazole-3-carboxylic acid [2-(5-chlorothiophen-2-yl)-4-methyl-thiazol-5-ylmethyl]-amide], less than 100 nM.
The figure for `Cc1nc(-c2cc3ccccc3s2)sc1CNC(=O)c1cc(NC(=O)c2cc(F)c(F)cc2Cl)[nH]n1` [Example 1-9, 5-(2-chloro-4,5-difluoro-benzoylamino)-1H-pyrazole-3-carboxylic acid (2-benzo[b]thiophen-2-yl-4-methyl-thiazol-5-ylmethyl)-amide] is less than 100 nM; for `CCOC(=O)c1nc(C)c(CNC(=O)c2cc(NC(=O)c3cc(F)c(F)cc3Cl)[nH]n2)s1` [Example 1-10, 5-(2-chloro-4,5-difluoro-benzoylamino)-1H-pyrazole-3-carboxylic acid (2-ethoxycarbonyl-4-methyl-thiazol-5-ylmethyl)-amide] it is less than 100 nM; for `Cc1nc(C23CC4CC(CC(C4)C2)C3)c(CNC(=O)c2cc(NC(=O)c3cc(F)c(F)cc3Cl)[nH]n2)s1` [Example 1-11, 5-(2-chloro-4,5-difluoro-benzoylamino)-1H-pyrazole-3-carboxylic acid (4-adamantan-1-yl-2-methyl-thiazol-5-ylmethyl)-amide] it is less than 100 nM.
The result for `Cc1nc2c(s1)CN(C(=O)c1cc(NC(=O)c3cc(F)c(F)cc3Cl)[nH]n1)CC2` [Example 1-12] reads 100 to 300 nM; that for `CCOC(=O)c1[nH]c(CNC(=O)c2cc(NC(=O)c3cc(F)c(F)cc3Cl)[nH]n2)nc1C` [Example 1-13, 5-(2-chloro-4,5-difluoro-benzoylamino)-1H-pyrazole-3-carboxylic acid (5-ethoxycarbonyl-4-methyl-1H-imidazol-2-ylmethyl)-amide], less than 100 nM; that for `Cc1onc(-c2ccc(C#N)cc2)c1CNC(=O)c1cc(NC(=O)c2cc(F)c(F)cc2Cl)[nH]n1` [Example 1-14, 5-(2-chloro-4,5-difluoro-benzoylamino)-1H-pyrazole-3-carboxylic acid [3-(4-cyano-phenyl)-5-methylisoxazol-4-ylmethyl]-amide], less than 100 nM.
Turning to `Cc1onc(-c2ccc(N(C)C)cc2)c1CNC(=O)c1cc(NC(=O)c2cc(F)c(F)cc2Cl)[nH]n1` [Example 1-15, 5-(2-chloro-4,5-difluoro-benzoylamino)-1H-pyrazole-3-carboxylic acid [3-(4-dimethylamino-phenyl)-5-methylisoxazol-4-ylmethyl]-amide], the IC50 was less than 100 nM.
Consider `Cc1onc(-c2ccc(S(C)(=O)=O)cc2)c1CNC(=O)c1cc(NC(=O)c2cc(F)c(F)cc2Cl)[nH]n1` [Example 1-16, 5-(2-chloro-4,5-difluoro-benzoylamino)-1H-pyrazole-3-carboxylic acid [3-(4-methanesulfonyl-phenyl)-5-methylisoxazol-4-ylmethyl]-amide], for which the IC50 was less than 100 nM.
Turning to `Cc1onc(-c2ccccc2F)c1CNC(=O)c1cc(NC(=O)c2cc(F)c(F)cc2Cl)[nH]n1` [Example 1-17, 5-(2-chloro-4,5-difluoro-benzoylamino)-1H-pyrazole-3-carboxylic acid [3-(2-fluoro-phenyl)-5-methylisoxazol-4-ylmethyl]-amide], the IC50 was in the range of 100 to 300 nM.
The figure for `Cc1cc(-c2onc(C)c2CNC(=O)c2cc(NC(=O)c3cc(F)c(F)cc3Cl)[nH]n2)no1` [Example 1-18, 5-(2-chloro-4,5-difluoro-benzoylamino)-1H-pyrazole-3-carboxylic acid (5,3′-dimethyl-[3,5′]biisoxazolyl-4′-ylmethyl)-amide] is less than 100 nM.
The figure for `Cc1cccc(-c2onc(C)c2CNC(=O)c2cc(NC(=O)c3cc(F)c(F)cc3Cl)[nH]n2)n1` [Example 1-19, 5-(2-chloro-4,5-difluoro-benzoylamino)-1H-pyrazole-3-carboxylic acid [3-methyl-5-(6-methyl-pyridin-2-yl)-isoxazol-4-ylmethyl]-amide] is less than 100 nM; for `Cc1noc(-c2ccnc(Cl)c2)c1CNC(=O)c1cc(NC(=O)c2cc(F)c(F)cc2Cl)[nH]n1` [Example 1-20, 5-(2-chloro-4,5-difluoro-benzoylamino)-1H-pyrazole-3-carboxylic acid [5-(2-chloro-pyridin-4-yl)-3-methylisoxazol-4-ylmethyl]-amide] it is less than 100 nM; for `Cc1ccc(-c2onc(C)c2CNC(=O)c2cc(NC(=O)c3cc(F)c(F)cc3Cl)[nH]n2)cn1` [Example 1-21, 5-(2-chloro-4,5-difluoro-benzoylamino)-1H-pyrazole-3-carboxylic acid [3-methyl-5-(6-methyl-pyridin-3-yl)-isoxazol-4-ylmethyl]-amide] it is less than 100 nM.
For `Cc1nc(C)c(-c2onc(C)c2CNC(=O)c2cc(NC(=O)c3cc(F)c(F)cc3Cl)[nH]n2)s1` [Example 1-22, 5-(2-chloro-4,5-difluoro-benzoylamino)-1H-pyrazole-3-carboxylic acid [5-(2,4-dimethyl-thiazol-5-yl)-3-methylisoxazol-4-ylmethyl]-amide], the IC50 is less than 100 nM.
